In patent US8563549B2, “Pyrimidine derivatives used as PI-3 kinase inhibitors” (Novartis AG, priority 2006, dated 2013):
Like-named read-outs stand apart in the source and are kept apart here.

Experiments:
[1] = system: A2780 ovarian cancer cells; assay: Cellular proliferation, Cell Titer Glo (Biological Method 4); type: cell-based; details: Homo sapiens, ovarian cancer cell line A2780
Description: In addition, many of the compounds of Table 1 were tested to determine their inhibitory activity in a cellular proliferation assay according to Biological Method 4.
The ability of the compounds of the invention to inhibit cellular proliferation were determined by using Cell Titer Glo, a commercially available assay from Promega Corporation. A2780 ovarian cancer cells were seeded in TC treated 96-well plates at a density of 1,000 per well in DMEM, 10% FBS, 1% Sodium Pyruvate, and 1% Penicillin Streptomycin for a minimum of 2 hrs prior to addition of compound. For each concentration of test compound, 2 μl (500×) aliquots of compound or 100% DMSO diluted in 500 μl of culture medium for 2× concentration then diluted 1× on the Cells. Cells were incubated for 72 hrs at 37° C., 5% CO2. After the 72 hour incubation, Cell Titer Glo reagent is added to determine number of viable cells remaining after exposure to the compound, and the EC50 value was calculated. The assay was performed according to the manufacturer's instruction (Promega Corporation, Madison, Wis. USA). Each experimental condition was performed in duplicate.

PI3 kinase alpha = PI3 kinase alpha (Homo sapiens, UniProt P42336); assay: PI3K ATP depletion assay (Biological Method 1, Assay 3); type: biochemical
Description: Assay 3: ATP Depletion Assay
Compounds to be tested are dissolved in DMSO and directly distributed into a black 384-well plate at 1.25 μL per well. To start the reaction, 25 μL of 10 nM PI3 kinase and 5 μg/mL 1-alpha-phosphatidylinositol (PI) are added into each well followed by 25 μL of 2 μM ATP. The reaction is performed until approx 50% of the ATP is depleted, and then stopped by the addition of 25 μL of KinaseGlo solution purchased from Promega. The stopped reaction is incubated for 5 minutes and the remaining ATP is then detected via luminescence.

pSer473 Akt = pSer473 Akt assay to monitor PI3K pathway in A2780 cells (Biological Method 2); type: cell-based; details: Homo sapiens, inhibition of Akt phosphorylation
Description: In this method, an assay for measuring the PI3K-mediated pSer473-Akt status after treatment with representative inhibitor compounds of the invention is described.
A2780 cells were cultured in DMEM supplemented with 10% FBS. L-glutamine, sodium pyruvate, and antibiotics. Cells were plated in the same medium at a density of 15,000 cells per well into 96 well tissue culture plates, with outside wells vacant, and allowed to adhere overnight.
Test compounds supplied in DMSO were diluted further into DMSO at 500 times the desired final concentrations before dilution into culture media to 2 times the final concentrations. Equal volumes of 2× compounds were added to the cells in 96 well plates and incubated at 37° C. for one hour. The media and compounds were then removed, the plates chilled and cells lysed in a lysis buffer (150 mM NaCl, 20 mM Tris pH 7.5, 1 mM EDTA, 1 mM EGTA, 1% Triton X-100) supplemented with phosphatase and protease inhibitors. After thorough mixing, lysates were transferred to both pSer473Akt and total Akt assay plates from Meso Scale Discovery (MSD), and incubated overnight with shaking at 4° C.
The assays were read on a SECTOR Imager 6000 instrument (Meso Scale Discovery). Ratios of the signal from pSer473Akt and total Akt assays were used to correct for any variability and the percent inhibition of pSer473Akt from the total signal seen in cells treated with compound versus DMSO alone was calculated and used to determine EC50 values for each compound.

Sequence of PI3 kinase alpha (P42336 whole entry): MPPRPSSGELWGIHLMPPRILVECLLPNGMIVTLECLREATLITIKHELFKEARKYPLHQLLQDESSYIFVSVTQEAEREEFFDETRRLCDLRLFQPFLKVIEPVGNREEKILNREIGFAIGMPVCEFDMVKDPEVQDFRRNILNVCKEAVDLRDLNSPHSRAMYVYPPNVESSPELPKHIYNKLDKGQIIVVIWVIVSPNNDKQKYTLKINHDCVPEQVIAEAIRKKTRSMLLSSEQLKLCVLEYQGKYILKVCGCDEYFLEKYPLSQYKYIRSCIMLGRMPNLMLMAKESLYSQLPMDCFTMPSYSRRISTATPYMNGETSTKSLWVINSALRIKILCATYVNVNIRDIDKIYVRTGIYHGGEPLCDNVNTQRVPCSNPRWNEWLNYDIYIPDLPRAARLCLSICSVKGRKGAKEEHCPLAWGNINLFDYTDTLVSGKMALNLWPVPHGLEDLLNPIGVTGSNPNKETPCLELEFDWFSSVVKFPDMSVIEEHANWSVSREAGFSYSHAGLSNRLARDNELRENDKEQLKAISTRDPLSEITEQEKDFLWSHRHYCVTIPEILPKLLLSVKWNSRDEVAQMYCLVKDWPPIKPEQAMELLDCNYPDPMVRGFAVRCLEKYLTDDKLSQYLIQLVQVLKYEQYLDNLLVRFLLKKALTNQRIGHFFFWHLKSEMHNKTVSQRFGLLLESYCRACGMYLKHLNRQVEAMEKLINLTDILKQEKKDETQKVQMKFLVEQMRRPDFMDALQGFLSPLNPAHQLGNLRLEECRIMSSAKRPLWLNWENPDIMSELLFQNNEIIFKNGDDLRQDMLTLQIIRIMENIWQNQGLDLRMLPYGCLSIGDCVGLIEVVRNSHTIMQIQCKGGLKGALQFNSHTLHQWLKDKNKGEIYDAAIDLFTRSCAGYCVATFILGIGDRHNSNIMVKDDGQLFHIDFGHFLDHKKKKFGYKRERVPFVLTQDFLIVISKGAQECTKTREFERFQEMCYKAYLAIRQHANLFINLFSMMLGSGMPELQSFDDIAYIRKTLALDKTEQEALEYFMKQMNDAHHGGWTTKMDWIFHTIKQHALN
Sequence of PI3 kinase alpha (P27986 whole entry partner): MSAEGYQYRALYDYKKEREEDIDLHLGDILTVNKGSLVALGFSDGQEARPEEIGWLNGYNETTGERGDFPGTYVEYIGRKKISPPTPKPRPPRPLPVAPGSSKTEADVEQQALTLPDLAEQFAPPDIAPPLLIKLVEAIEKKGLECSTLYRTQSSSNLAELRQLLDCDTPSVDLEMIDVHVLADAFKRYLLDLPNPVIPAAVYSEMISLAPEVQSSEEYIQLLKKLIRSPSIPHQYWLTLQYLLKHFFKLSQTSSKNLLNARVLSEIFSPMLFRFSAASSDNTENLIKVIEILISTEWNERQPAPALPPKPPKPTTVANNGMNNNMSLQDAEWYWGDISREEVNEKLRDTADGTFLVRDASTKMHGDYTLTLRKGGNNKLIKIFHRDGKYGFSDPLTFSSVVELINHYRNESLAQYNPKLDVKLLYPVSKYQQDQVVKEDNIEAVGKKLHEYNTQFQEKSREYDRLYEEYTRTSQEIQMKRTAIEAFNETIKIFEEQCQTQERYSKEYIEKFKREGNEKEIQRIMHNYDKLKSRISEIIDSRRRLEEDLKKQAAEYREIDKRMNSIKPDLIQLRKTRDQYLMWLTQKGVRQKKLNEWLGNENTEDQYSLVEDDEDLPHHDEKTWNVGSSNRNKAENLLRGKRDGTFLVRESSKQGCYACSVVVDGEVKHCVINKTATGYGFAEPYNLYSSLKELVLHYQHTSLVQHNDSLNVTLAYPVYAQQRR

SMILES | EC50 [1] [µM] | IC50 (PI3 kinase alpha) [µM] | also measured
CCN(CC)CCc1csc(Nc2cc(-c3cnc(N)cc3C(F)(F)F)nc(N3CCOCC3)n2)n1 [Compound 13] | < 10 |  | 
Nc1cc(C(F)(F)F)c(-c2cc(N3CCCCC3=O)nc(N3CCOCC3)n2)cn1 [Compound 17] | < 10 |  | 
Nc1cc(C(F)(F)F)c(-c2cc(N3CCN(c4ccccc4)C3=O)nc(N3CCOCC3)n2)cn1 [Compound 18] | < 10 |  | 
CC(=O)N1CCC(Oc2cc(-c3cnc(N)cc3C(F)(F)F)nc(N3CCOCC3)n2)CC1 [Compound 19] | < 10 |  | 
CC(C)(C)OC(=O)N1CCC[C@H](Oc2cc(-c3cnc(N)cc3C(F)(F)F)nc(N3CCOCC3)n2)C1 [Compound 20] | < 10 |  | 
CC(=O)N1CCC[C@@H](Oc2cc(-c3cnc(N)nc3N)nc(N3CCOCC3)n2)C1 [Compound 29] | < 10 |  | 
CCN(CC)CCc1csc(Nc2cc(-c3cnc(N)nc3C(F)(F)F)nc(N3CCOCC3)n2)n1 [Compound 55] | < 1 | < 1 | EC50 (pSer473 Akt): < 1 µM
Cc1c(Nc2ncc(-c3ccccc3)s2)nc(N2CCOCC2)nc1-c1cnc(N)nc1 [Compound 61] | < 1 | < 1 | EC50 (pSer473 Akt): < 1 µM
CS(=O)(=O)N1CCC[C@H](Oc2cc(-c3cnc(N)nc3N)nc(N3CCOCC3)n2)C1 [Compound 89] | < 1 | < 1 | EC50 (pSer473 Akt): < 1 µM
CS(=O)(=O)c1cccc(-c2cc(-c3cnc(N)cc3C#N)nc(N3CCOCC3)n2)c1 [Compound 92] | < 10 |  | 
CC(C)N1CCC(Oc2ccc(Nc3cc(-c4cnc(N)cc4C(F)(F)F)nc(N4CCOCC4)n3)cn2)C1 (centres unmarked) [Compound 93] | < 10 |  | 
CS(=O)(=O)c1cccc(-c2cc(-c3cnc(N)cc3C(F)(F)F)nc(N3CCOCC3)n2)c1 [Compound 95] | < 10 |  | 
Nc1ncc(-c2cc(OC3CCN(C(=O)OC4CCCC4)CC3)nc(N3CCOCC3)n2)c(N)n1 [Compound 97] | < 10 |  | 
CC(=O)N1CCC(Oc2cc(-c3cnc(N)nc3N)nc(N3CCOCC3)n2)CC1 [Compound 99] | < 10 |  | 
CC(=O)Nc1ncc(-c2cc(-c3cnc(N)cc3C(F)(F)F)nc(N3CCOCC3)n2)s1 [Compound 126] | < 10 | < 1 | EC50 (pSer473 Akt): < 1 µM
CCN(CC)CCc1csc(Nc2cc(-c3cnc(N)nc3N)nc(N3CCOCC3)n2)n1 [Compound 133] | < 1 | < 1 | EC50 (pSer473 Akt): < 1 µM
Nc1ncc(-c2cc(OC3CCN(C(=O)OCc4ccccc4)CC3)nc(N3CCOCC3)n2)c(N)n1 [Compound 146] | < 1 | < 1 | EC50 (pSer473 Akt): < 1 µM
COc1ccc(Nc2cc(-c3cnc(N)nc3C(F)(F)F)nc(N3CCOCC3)n2)cn1 [Compound 151] | < 10 | < 1 | EC50 (pSer473 Akt): < 1 µM

SMILES | EC50 [1] [µM] | IC50 (PI3 kinase alpha) [µM] | also measured
CN(C)CCOc1cncc(-c2cc(-c3cnc(N)cc3C(F)(F)F)nc(N3CCOCC3)n2)c1 [Compound 203] | < 10 | < 1 | EC50 (pSer473 Akt): < 1 µM
Nc1ncc(-c2cc(-c3cncc(O)c3)nc(N3CCOCC3)n2)cn1 [Compound 274] | < 10 |  | 
Nc1ncc(-c2cc(-c3cnc(N)nc3)nc(N3CCOCC3)n2)cn1 [Compound 279] | < 1 |  | 
Nc1cc(C(F)(F)F)c(-c2cc(-c3cccnc3NCCO)nc(N3CCOCC3)n2)cn1 [Compound 285] | < 10 | < 1 | 
Nc1cc(Cl)c(-c2cc(OC3CCOCC3)nc(N3CCOCC3)n2)cn1 [Compound 328] | < 10 |  | 
Nc1ncc(-c2cc(Nc3ccnc4c(C(F)(F)F)cccc34)nc(N3CCOCC3)n2)cn1 [Compound 408] |  |  | IC50 (PI3 kinase alpha; Table 1, Biological Method 1): < 1 µM; EC50 ([1]; Biological Method 4): < 10 µM
CN(C)C(=O)c1cnc(N2CCOCC2)nc1-c1cnc(N)nc1 [Compound 422] |  |  | IC50 (PI3 kinase alpha; Table 1, Biological Method 1): < 10 µM
Nc1ccc(-c2cc(NCc3ccncc3)nc(N3CCOCC3)n2)cn1 [Compound 443] |  |  | IC50 (PI3 kinase alpha; Table 1, Biological Method 1): < 10 µM
Nc1ccc(-c2cc(NCc3ccccn3)nc(N3CCOCC3)n2)cn1 [Compound 444] |  |  | IC50 (PI3 kinase alpha; Table 1, Biological Method 1): < 10 µM
Nc1ccc(-c2cc(NCc3cccnc3)nc(N3CCOCC3)n2)cn1 [Compound 445] |  |  | IC50 (PI3 kinase alpha; Table 1, Biological Method 1): < 10 µM
CS(=O)(=O)Nc1cc(N)ncc1-c1cc(Nc2cnc3ccccc3c2)nc(N2CCOCC2)n1 [Compound 492] |  |  | IC50 (PI3 kinase alpha; Table 1, Biological Method 1): < 10 µM
COc1ccc2cc(Nc3cc(-c4ccc(N)nc4)nc(N4CCOCC4)n3)cnc2c1 [Compound 494] |  |  | EC50 ([1]; Biological Method 4): < 10 µM
Nc1ccc(-c2cc(Nc3cnc4ccc(OC(F)(F)F)cc4c3)nc(N3CCOCC3)n2)cn1 [Compound 496] |  |  | IC50 (PI3 kinase alpha; Table 1, Biological Method 1): < 10 µM
Nc1ccc(-c2cc(-c3ccc(N4CCN(CCO)CC4)nc3)nc(N3CCOCC3)n2)cn1 [Compound 499] |  |  | IC50 (PI3 kinase alpha; Table 1, Biological Method 1): < 1 µM; EC50 ([1]; Biological Method 4): < 10 µM
CS(=O)(=O)Nc1ccc(-c2cc(-c3ccc(N)nc3)nc(N3CCOCC3)n2)cn1 [Compound 503] |  |  | IC50 (PI3 kinase alpha; Table 1, Biological Method 1): < 1 µM; EC50 ([1]; Biological Method 4): < 10 µM
N#Cc1cnc(Nc2cc(-c3cnc(N)nc3C(F)(F)F)nc(N3CCOCC3)n2)s1 [Compound 545] |  |  | IC50 (PI3 kinase alpha; Table 1, Biological Method 1): < 1 µM
Cc1c(Nc2nc(-c3ccccc3)cs2)nc(N2CCOCC2)nc1-c1cnc(N)cc1C(F)(F)F [Compound 555] |  |  | IC50 (PI3 kinase alpha; Table 1, Biological Method 1): < 10 µM

Now from value to compound, other results behind:

EC50 [1] [µM] | IC50 (PI3 kinase alpha) [µM] | SMILES | also measured
< 10 |  | COCCNc1cc(-c2cnc(N)nc2)nc(N2CCOCC2)n1 [Compound 14] | 
< 10 |  | CC(C)(C)Nc1cc(-c2cnc(N)nc2)nc(N2CCOCC2)n1 [Compound 16] | 
< 1 | < 1 | Nc1ccc(-c2cc(-c3cc4ccccc4nc3NCCN3CCCC3)nc(N3CCOCC3)n2)cn1 [Compound 182] | EC50 (pSer473 Akt): < 1 µM
< 10 |  | COc1cncc(-c2cc(-c3ccc(N)nc3)nc(N3CCOCC3)n2)c1 [Compound 275] | 
< 1 |  | Nc1ncc(-c2cc(-c3ccc(F)nc3)nc(N3CCOCC3)n2)cn1 [Compound 278] | 
< 25 | < 10 | N#Cc1cccnc1Nc1cc(-c2ccc(N)nc2)nc(N2CCOCC2)n1 [Compound 364] | 
< 10 | < 1 | Cn1c(Nc2cc(-c3cnc(N)nc3)nc(N3CCOCC3)n2)nc2ccccc21 [Compound 394] | 
< 10 | < 1 | Nc1ncc(-c2cc(N[C@H]3CCC[C@@H]3OCc3ccccc3)nc(N3CCOCC3)n2)cn1 [Compound 396] | 
